This is an account of results in patent US10869846B2, “N-acetylcysteine amide (NAC amide) in the treatment of diseases and conditions associated with oxidative stress” (SENTIENT LIFESCIENCES, INC., priority 2005, dated 2020).

The subject of data set [1] is PC12 cells. Description: GSH measurement in cells (NPM/HPLC). Type of data set: cell-based. Conditions: GLU (10 mM) alone. How it is done:
Cells were seeded at a density of 80,000 cells/cm^2 on poly-D-lysine coated (0.05 mg/ml) 75 cm^2 flasks (5 ml/flask) for GSH measurement. […] After the incubation period, cells were removed from the cultures and homogenized in serine borate buffer (100 mM Tris-HCl, 10 mM boric acid, 5 mM L-serine, 1 mM DETAPAC, pH 7.4). Twenty (20) μl of the diluted cell homogenate were added to 230 μl of serine borate buffer and 750 μl of NPM (1 mM in acetonitrile). The resulting solutions were incubated at room temperature for 5 min. The reaction was stopped by the addition of 5 μl of 2N HCl. The samples were then filtered through a 0.2 μm Acrodisc filter and injected onto the HPLC system.
[…] Values represent means.+−.SD. Statistically different values of *P<0.05 were determined, compared to control. **P<0.001 compared to glutamate-treated group. ***P<0.05 compared to glutamate-treated group.

Data set [2] relates to PC12 cells. Description: MDA measurement in glutamate-exposed cells. Type of data set: cell-based. The settings on record: GLU (10 mM) alone, 24 h. The procedure: MDA measurement: To prepare the solution, 350 μl of straight cell homogenate, 100 μl of 500 ppm BHT (butylated hydroxytoluene), and 550 μl of 10% TCA (trichloroacetic acid) were combined and boiled for 30 min. The tubes were cooled on ice and centrifuged for 10 min at 2500 rpm. Five hundred (500) μl of the supernatant were removed and 500 μl of TBA (thiobarbituric acid) were added. The tubes were boiled again for 30 min, and then cooled on ice. From this solution, 500 μl were removed, added to 1.0 ml of n-butanol, vortexed, and centrifuged for 5 min at 60 g to facilitate a phase separation. The top layer was then filtered through 0.45 μm filters and injected onto a 5 μm C18 column (250×4.6 mm) on a reverse phase HPLC system. The mobile phase consisted of 69.4% 5 mM sodium phosphate buffer (pH=7.0), 30% acetonitrile, and 0.6% THF (tetrahydrofuran). The excitation wavelength was 515 nm; the emission wavelength was 550 nm (Draper H. H. et al., Free Radic Biol Med., 15(4):353-63, 1993).
Cells were plated and grown for 24 hours, and then they were exposed to glutamate (10 mM) in the presence or absence of NAC amide (750 μM). Twenty-four hours later, the cells were harvested and malondialdehyde levels were measured. Values represent means.+−.SD. Statistically different values of *P<0.002 and **P<0.05 were determined, compared to control. ***P<0.05 compared to glutamate-treated group.

The next data set deals with mouse. Conditions: subcutaneous injection; cited from earlier work.

Consider `N[C@@H](CCC(=O)O)C(=O)O` [GLU, glutamate, reference compound], for which the “GSH Levels” value in the data set with PC12 cells [1] was determined as 23 ± 4.2 nM/mg protein. Besides, the “MDA Levels” value with PC12 cells [2] stood at 247 ± 26 nM/100 mg protein. `CN1CC[C@]23c4c5ccc(O)c4O[C@H]2C(=O)C=C[C@H]3[C@H]1C5` [Morphinone, morphinone]: the “toxicity relative to morphine” value with mouse was 9 times.
